The test system of this assay is methicillin-resistant Staphylococcus aureus. The experiment in a line: In-vitro time-kill test on S. aureus (MRSA). The note with it: for Post-exposure population: inoculum 1.460×10^7 CFU/ML.

The structures appear in SMILES notation.

Our source for the Log10 reduction, Percent reduction and Post-exposure population values is patent US20140275275A1, “Chlorhexadine Antiseptic” (CARNELL & HERZOG, LLC, priority 2013, published 2014).

Protocol: This example compares the test composition to a solution of 4% chlorhexidine gluconate. The microorganism used in the test was methicillin-resistant Staphylococcus aureus.
An in-vitro time-kill test was performed on S. aureus using both the test composition and the solution of 4% chlorhexidine gluconate. A S. aureus suspension with an inoculum level of 1.460×10^7 colony-forming units (CFU)/ML was used for all tests. A 0.1 mL aliquot of the S. aureus suspension was added to 9.9 mL of the test composition or the 4% chlorhexidine gluconate solution and exposed for periods of one minute, five minutes, and 10 minutes. At the end of each exposure period, a neutralizer was added to stop the bactericidal activity.

For `N=C(NCCCCCCNC(=N)NC(=N)Nc1ccc(Cl)cc1)NC(=N)Nc1ccc(Cl)cc1.O=C(O)[C@H](O)[C@@H](O)[C@H](O)[C@H](O)CO.O=C(O)[C@H](O)[C@@H](O)[C@H](O)[C@H](O)CO` [4% chlorhexidine gluconate, chlorhexidine gluconate], the Log10 reduction reads like this: (exposure 1 minute) 4.0798 Log10; (exposure 5 minutes) 6.1644 Log10; (exposure 10 minutes) 6.1644 Log10. Moreover, the Percent reduction is, setting by setting: (exposure 1 minute) 99.9917%; (exposure 5 minutes) 99.9999%; (exposure 10 minutes) 99.9999%. For the same compound, the Post-exposure population (exposure 1 minute) is 1.2150 × 10^3 CFU/ML, the Post-exposure population (exposure 5 minutes) is given as <1.00 × 10^1 CFU/ML and the Post-exposure population (exposure 10 minutes) was <1.00 × 10^1 CFU/ML.
